≈ marks a conversion by molar mass, not a printed value. Where “and” joins values, the source holds several entries; their conditions need not be identical. Equal values may be shown once. Read-outs that look alike come from different tables or passages of the source.
Assays:
[1] = In vitro metabolism in liver microsomes; format: in vitro ADME; conditions: rat liver microsomes
HCK = HCK (Homo sapiens, UniProt P08631); test: Kinase profiling; format: biochemical
[2] = In vitro metabolism in liver microsomes; format: in vitro ADME; conditions: monkey liver microsomes
TNF‐α secretion = test: Cytokine ELISA, TNF‐α secretion in THP‐1 cells; format: cell-based; conditions: Homo sapiens, THP-1, read-out: IC50 TNF‐α secretion
pH dependent solubility = format: physicochemical
CYP2C8 = CYP2C8 (Homo sapiens, UniProt P10632); test: In vitro CYP inhibition in human liver microsomes; format: in vitro ADME
Plasma protein binding [3] = format: in vitro ADME; conditions: human
BTK [4] = biological target: T1, BTK (Homo sapiens, UniProt Q06187); test: Kinase profiling; format: biochemical
U2932 cells = test: Cell cytotoxicity assay; format: cell-based; conditions: for IC50: Homo sapiens
BTK‐WT = BTK‐WT (Homo sapiens, UniProt Q06187); test: Ki determination with Omnia Tyr peptide kit; format: biochemical
[5] = In vivo pharmacokinetics in rats; parameters: species or system male Wistar rats; conditions: rat
TMD8 cells [6] = test: Cell cytotoxicity assay; format: cell-based; conditions: Homo sapiens, TMD8, 96 h, read-out: IC50 cell proliferation TMD8
[7] = test system: collagen‐induced arthritis (CIA); test: Collagen‐induced arthritis in mice; format: in vivo, DBA1/J male mice; conditions: for reduction of clinical scores compared with vehicle controls: at study termination; for group mean histologic severity score of paws: vehicle 10.4
CYP2C19 = CYP2C19 (Homo sapiens, UniProt P33261); test: In vitro CYP inhibition in human liver microsomes; format: in vitro ADME
CYP3A4 = CYP3A4 (Homo sapiens, UniProt P08684); test: In vitro CYP inhibition in human liver microsomes; format: in vitro ADME
CYP2D6 = CYP2D6 (Homo sapiens, UniProt P10635); test: In vitro CYP inhibition in human liver microsomes; format: in vitro ADME
TEC = TEC (Homo sapiens, UniProt P42680); test: Kinase profiling; format: biochemical
[8] = In vitro metabolism in liver microsomes; format: in vitro ADME; conditions: human liver microsomes
CYP1A2 = CYP1A2 (Homo sapiens, UniProt P05177); test: In vitro CYP inhibition in human liver microsomes; format: in vitro ADME
phospho‐BTK (Y223) = test: Phospho‐protein analysis in THP‐1 cells; format: cell-based, human
[9] = Caco‐2 permeability/efflux ratio; format: in vitro ADME; conditions: human, Caco-2
Caco‐2 cell monolayers = test: Caco‐2 permeability/efflux ratio; format: in vitro ADME; conditions: Caco2 monolayer
JAK3 = JAK3 (Homo sapiens, UniProt P52333); test: Kinase profiling; format: biochemical
Raji cells = test: Cell cytotoxicity assay; format: cell-based; conditions: Homo sapiens, read-out: cell killing potency (IC50) Raji
[10] = In vitro metabolism in liver microsomes; format: in vitro ADME; conditions: mouse liver microsomes
mutant BTK (C481S) = mutant BTK (C481S) (Homo sapiens, UniProt Q06187, C481S); test: BTK enzyme activity assay; format: biochemical
SCW induced arthritis = test: Streptococcal cell wall; format: in vivo, Sprague Dawley rats
BTK [11] = biological target: T1, BTK; test: Fluorescence competition binding assay
[12] = Toxicological studies in rats; format: in vivo; conditions: rats up to 300 mg/kg dose (unpublished observation)
CYP2C9 = CYP2C9 (Homo sapiens, UniProt P11712); test: In vitro CYP inhibition in human liver microsomes; format: in vitro ADME
HBL‐1 cells = test: Cell cytotoxicity assay; format: cell-based; conditions: HBL1, 96 h, read-out: IC50 cell proliferation HBL‐1
Plasma protein binding [13] = format: in vitro ADME; conditions: rat
IL‐6 secretion = test: Cytokine ELISA, IL‐6 secretion in TMD8 cells; conditions: read-out: IC50 IL‐6 secretion, TMD‐8 cells, 16 hours
TMD8 cells [14] = test: Cell washout cytotoxicity assay; conditions: TMD‐8 cells; 25 nmol/L
[15] = In vitro metabolism in liver microsomes; format: in vitro ADME; conditions: dog liver microsomes
[16] = male, Wistar, plasma, iv, 1 mg/kg
[17] = male, Wistar, plasma, po, 3 mg/kg

CYP2C8, sequence (P10632 whole entry): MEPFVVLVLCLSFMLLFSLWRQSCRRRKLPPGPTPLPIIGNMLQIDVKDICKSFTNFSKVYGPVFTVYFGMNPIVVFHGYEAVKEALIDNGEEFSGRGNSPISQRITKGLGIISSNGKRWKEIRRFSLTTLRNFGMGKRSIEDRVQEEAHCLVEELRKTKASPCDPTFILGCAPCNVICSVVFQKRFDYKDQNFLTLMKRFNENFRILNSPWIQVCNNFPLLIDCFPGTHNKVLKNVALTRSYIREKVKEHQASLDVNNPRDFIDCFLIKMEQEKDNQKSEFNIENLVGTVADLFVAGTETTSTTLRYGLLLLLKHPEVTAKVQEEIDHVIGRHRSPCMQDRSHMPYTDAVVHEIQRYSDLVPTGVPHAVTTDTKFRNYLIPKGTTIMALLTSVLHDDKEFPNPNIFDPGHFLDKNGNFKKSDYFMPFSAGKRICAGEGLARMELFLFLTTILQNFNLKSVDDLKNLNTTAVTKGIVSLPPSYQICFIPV
T1 sequence (Q06187 whole entry): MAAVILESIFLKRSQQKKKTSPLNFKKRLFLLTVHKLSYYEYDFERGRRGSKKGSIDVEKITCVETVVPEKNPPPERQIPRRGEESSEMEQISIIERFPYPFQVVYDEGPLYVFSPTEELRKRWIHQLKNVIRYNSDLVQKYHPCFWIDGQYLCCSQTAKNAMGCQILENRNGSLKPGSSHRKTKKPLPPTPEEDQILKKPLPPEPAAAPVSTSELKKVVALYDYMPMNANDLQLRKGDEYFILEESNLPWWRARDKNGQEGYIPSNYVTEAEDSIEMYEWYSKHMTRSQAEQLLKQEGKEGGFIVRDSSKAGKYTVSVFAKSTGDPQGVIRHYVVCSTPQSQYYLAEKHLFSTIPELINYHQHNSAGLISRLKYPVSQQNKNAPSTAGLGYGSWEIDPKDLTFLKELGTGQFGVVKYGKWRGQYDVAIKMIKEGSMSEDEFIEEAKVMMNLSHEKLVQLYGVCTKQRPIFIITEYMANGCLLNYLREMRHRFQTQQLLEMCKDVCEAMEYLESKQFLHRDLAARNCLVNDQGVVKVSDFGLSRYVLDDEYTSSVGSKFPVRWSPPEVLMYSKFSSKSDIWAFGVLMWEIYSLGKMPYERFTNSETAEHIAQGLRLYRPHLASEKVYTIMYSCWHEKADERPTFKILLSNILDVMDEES
CYP2C9, sequence (P11712 whole entry): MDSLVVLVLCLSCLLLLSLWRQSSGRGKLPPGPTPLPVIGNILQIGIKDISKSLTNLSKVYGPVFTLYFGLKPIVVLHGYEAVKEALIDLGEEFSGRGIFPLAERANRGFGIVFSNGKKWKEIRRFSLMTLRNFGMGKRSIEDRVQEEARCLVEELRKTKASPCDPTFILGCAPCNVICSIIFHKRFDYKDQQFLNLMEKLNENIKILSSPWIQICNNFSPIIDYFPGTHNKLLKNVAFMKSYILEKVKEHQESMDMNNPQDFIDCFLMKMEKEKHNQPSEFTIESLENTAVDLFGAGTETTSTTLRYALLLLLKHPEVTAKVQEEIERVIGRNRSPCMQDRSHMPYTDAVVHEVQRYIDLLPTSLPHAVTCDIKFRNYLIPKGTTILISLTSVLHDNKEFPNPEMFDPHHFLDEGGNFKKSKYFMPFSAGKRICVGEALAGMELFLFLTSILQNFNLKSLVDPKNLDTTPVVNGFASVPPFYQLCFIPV
CYP2C19, sequence (P33261 whole entry): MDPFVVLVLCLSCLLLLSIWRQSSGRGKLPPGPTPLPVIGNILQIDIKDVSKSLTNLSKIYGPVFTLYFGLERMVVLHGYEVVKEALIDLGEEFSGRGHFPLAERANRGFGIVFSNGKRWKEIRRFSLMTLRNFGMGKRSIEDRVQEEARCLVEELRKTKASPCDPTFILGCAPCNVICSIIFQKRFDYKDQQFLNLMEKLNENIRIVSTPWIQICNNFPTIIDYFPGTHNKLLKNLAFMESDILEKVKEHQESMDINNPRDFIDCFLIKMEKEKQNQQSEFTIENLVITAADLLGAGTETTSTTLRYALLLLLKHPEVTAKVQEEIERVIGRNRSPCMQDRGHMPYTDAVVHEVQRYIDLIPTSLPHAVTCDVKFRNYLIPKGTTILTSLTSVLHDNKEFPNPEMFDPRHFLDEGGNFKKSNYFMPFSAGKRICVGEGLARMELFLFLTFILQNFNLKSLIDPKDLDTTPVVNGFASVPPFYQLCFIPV
CYP3A4, sequence (P08684 whole entry): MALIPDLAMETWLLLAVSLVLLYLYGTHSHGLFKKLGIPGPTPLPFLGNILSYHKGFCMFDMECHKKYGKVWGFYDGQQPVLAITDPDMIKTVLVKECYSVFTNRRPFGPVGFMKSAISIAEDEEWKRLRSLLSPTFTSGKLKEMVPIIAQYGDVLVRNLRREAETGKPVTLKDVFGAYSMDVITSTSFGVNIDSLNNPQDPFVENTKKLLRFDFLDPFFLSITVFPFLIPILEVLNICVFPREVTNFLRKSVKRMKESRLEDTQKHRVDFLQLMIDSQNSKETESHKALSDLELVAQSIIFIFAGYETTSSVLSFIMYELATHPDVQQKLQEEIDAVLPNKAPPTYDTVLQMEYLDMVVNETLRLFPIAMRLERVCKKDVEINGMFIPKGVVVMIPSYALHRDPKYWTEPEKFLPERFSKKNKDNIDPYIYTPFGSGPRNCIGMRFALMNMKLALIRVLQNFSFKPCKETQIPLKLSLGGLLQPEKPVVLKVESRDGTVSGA
BTK‐WT, sequence (Q06187 whole entry): as the sequence (Q06187 whole entry) above
mutant BTK (C481S), sequence (Q06187 whole entry C481S): as the sequence (Q06187 whole entry) above, with C481S counted along it
CYP2D6, sequence (P10635 whole entry): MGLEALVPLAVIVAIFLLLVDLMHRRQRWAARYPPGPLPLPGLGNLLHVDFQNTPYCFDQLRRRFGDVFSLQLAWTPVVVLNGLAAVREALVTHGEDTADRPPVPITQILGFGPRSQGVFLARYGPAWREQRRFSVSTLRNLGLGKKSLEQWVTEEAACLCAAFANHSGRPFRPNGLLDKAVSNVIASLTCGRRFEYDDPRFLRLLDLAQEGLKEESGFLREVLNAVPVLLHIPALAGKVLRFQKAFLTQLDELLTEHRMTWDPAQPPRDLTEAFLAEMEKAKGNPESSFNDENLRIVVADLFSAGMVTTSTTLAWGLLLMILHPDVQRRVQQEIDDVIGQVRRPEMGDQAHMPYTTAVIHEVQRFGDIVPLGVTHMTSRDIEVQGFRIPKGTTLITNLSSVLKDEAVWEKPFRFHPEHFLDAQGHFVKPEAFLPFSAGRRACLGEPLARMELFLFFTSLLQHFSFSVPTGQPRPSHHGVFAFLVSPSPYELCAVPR
JAK3, sequence (P52333 whole entry): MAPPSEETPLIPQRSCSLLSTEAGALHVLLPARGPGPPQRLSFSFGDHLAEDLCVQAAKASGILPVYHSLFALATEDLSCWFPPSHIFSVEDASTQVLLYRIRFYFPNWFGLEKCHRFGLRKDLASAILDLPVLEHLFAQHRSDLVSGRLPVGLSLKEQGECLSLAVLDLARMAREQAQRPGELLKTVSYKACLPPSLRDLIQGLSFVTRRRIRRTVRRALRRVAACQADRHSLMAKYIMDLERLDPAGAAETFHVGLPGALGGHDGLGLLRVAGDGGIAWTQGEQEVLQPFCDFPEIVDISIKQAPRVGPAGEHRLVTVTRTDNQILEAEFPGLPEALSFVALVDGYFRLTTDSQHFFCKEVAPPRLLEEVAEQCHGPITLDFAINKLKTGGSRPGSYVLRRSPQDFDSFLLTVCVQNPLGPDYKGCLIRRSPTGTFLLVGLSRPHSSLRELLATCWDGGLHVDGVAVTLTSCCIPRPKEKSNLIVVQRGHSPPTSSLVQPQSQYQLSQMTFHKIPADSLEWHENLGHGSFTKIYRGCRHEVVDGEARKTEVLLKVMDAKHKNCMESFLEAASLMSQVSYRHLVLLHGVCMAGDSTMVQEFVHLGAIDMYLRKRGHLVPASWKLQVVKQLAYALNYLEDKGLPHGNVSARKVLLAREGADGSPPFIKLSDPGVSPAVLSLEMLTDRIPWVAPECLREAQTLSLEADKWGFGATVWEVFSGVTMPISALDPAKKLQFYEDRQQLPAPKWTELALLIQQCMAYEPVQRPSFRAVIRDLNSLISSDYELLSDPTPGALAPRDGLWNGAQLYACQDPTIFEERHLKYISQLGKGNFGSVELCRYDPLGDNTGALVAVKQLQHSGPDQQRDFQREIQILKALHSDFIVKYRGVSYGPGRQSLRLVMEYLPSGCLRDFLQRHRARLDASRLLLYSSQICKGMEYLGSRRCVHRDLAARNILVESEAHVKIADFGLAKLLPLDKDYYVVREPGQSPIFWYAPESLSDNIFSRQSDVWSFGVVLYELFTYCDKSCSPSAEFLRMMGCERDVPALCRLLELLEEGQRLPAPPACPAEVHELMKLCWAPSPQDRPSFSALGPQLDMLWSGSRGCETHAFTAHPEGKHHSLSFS
HCK, sequence (P08631 whole entry): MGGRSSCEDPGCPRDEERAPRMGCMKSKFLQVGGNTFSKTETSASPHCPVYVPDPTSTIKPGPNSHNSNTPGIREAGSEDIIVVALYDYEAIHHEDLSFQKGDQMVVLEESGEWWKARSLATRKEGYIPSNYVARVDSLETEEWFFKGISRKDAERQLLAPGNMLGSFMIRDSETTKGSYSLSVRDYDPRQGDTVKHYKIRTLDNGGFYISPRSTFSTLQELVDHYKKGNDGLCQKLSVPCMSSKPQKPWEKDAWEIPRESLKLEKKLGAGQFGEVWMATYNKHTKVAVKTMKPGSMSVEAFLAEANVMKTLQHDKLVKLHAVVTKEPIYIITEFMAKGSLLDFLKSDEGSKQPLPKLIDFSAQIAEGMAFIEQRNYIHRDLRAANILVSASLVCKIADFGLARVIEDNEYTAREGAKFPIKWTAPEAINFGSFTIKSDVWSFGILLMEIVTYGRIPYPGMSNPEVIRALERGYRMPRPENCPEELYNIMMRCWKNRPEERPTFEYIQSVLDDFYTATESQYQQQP

## C=CC(=O)N1CC2CC(n3nc(-c4ccc(C(=O)Nc5ccccn5)cc4)c4c(N)ncnc43)CC2C1 (stereo not shown) [ZYBT1, 4‐(1‐(2‐acryloyloctahydrocyclopenta[c]pyrrol‐5‐yl)‐4‐amino‐1H‐pyrazolo[3,4‐d]pyrimidin‐3‐yl)‐N‐(pyridin‐2‐yl)benzamide]
[1]
  mClint: 2.62 mL/min/gm liver
[1]; 1 µmol/L, 30 minutes, NADPH
  % metabolized: 55%
HCK
  IC50: > 10 µM
[2]
  mCLlint: 3.49 mL/min/gm liver
[2]; 1 µmol/L, 30 minutes, NADPH
  % metabolized: 66%
TNF‐α secretion
  IC50: 1 nM
pH dependent solubility; buffer, pH 4.5, aqueous buffer
  solubility: < 2 µM
pH dependent solubility; buffer, pH 6.8, aqueous buffer
  solubility: < 2 µM
pH dependent solubility; pH 1.2, simulated gastric fluid
  solubility: 500 µM (≈ 247 µg/mL)
pH dependent solubility; purified water, water
  solubility: < 2 µM
CYP2C8
  IC50: 5 to 15 µM and 5.5 µM
Plasma protein binding [3]
  fraction unbound: 0.016
BTK [4]
  IC50: 27 nM
U2932 cells; U2932, 96 h, read-out: IC50 cell proliferation U2932
  IC50: 961 nM
U2932 cells; U2932, read-out: IC50 U2932
  IC50: ~1000 nM
U2932 cells; within ABC‐DLBCL subgroup
  fold resistance of U2932 versus TMD‐8 and HBL‐1: ~ 1000 fold
BTK‐WT
  Ki: 14 nM
[5]; [16]
  Vd: 0.88 ± 0.12 L/kg
  clearance: 36 ± 7.8 mL/min/kg
  half-life: 36 ± 6 min
[5]; [17]
  AUC: 908 ± 170 ng·h/mL
  bioavailability: 75%
  half-life: 132 ± 78 min
[5]; male, Wistar, plasma, po, 3 mg/kg, peak plasma concentration (Cmax), rats, oral (3 mg/mg), mean ± SD, n = 4
  Cmax: 650 ± 222 ng/mL
[5]; considering 91% PPB
  exposure to free drug at efficacy dose: 360 nmol/L
TMD8 cells [6]
  IC50: 1 nM
[7]; 0.125 mg/kg once daily oral
  reduction of clinical scores compared with vehicle controls: 22%
[7]; 0.125 mg/kg once daily
  group mean histologic severity score of paws: 5
[7]; 0.25 mg/kg once daily oral
  reduction of clinical scores compared with vehicle controls: 61%
[7]; 0.25 mg/kg once daily
  group mean histologic severity score of paws: 3.75
[7]; 0.5 mg/kg once daily oral
  reduction of clinical scores compared with vehicle controls: 93%
[7]; 0.5 mg/kg once daily
  group mean histologic severity score of paws: 1
[7]; 0.6 mg/kg ZYBT1 versus 3 mg/kg Ibrutinib
  efficacy in arthritis model compared with ibrutinib: comparable efficacy as 3 mg/kg Ibrutinib
[7]; 1 mg/kg once daily oral
  reduction of clinical scores compared with vehicle controls: 97%
[7]; 1 mg/kg once daily
  group mean histologic severity score of paws: 0.2
[7]; 0.125, 0.25, 0.5 & 1 mg/kg, OD, end of the study (Figure S5)
  body weight change: did not observe any body weight change
[7]; once daily
  lowest, significantly efficacious dose: 0.25 mg/kg
[7]; once daily oral dosing
  time to improvement in clinical signs of disease after initiation of dosing: 2 days
CYP2C19
  IC50: > 30 µM
CYP3A4
  IC50: > 30 µM
CYP2D6
  IC50: > 30 µM
TEC
  IC50: 38 nM
[8]
  mClint: 1.28 mL/min/gm liver
[8]; 1 µmol/L, 30 minutes, NADPH
  % metabolized: ≤ 32%
CYP1A2
  IC50: > 30 µM
phospho‐BTK (Y223); Homo sapiens, THP-1, 1 h, read-out: IC50 BTK‐phosphorylation (Y223)
  IC50: 2 nM
phospho‐BTK (Y223); THP‐1 cells, 500 nmol/L for 1 hour, washout, 24 hours
  phosphorylation of BTK after washout: completely abolished
phospho‐BTK (Y223); THP‐1 cells, one hour
  concentration that completely abrogates phosphorylation of tyrosine 223: ≥ 30 nmol/L
[9]
  Papp at 2 µmol/L: 3.3 ×10⁻⁶ cm/s
Caco‐2 cell monolayers
  efflux transporter substrate: substrate of efflux transporters
JAK3
  IC50: > 10 µM
Raji cells
  IC50: 15 µM
[10]
  mClint: 0.46 mL/min/gm liver
[10]; 1 µmol/L, 30 minutes, NADPH
  % metabolized: up to 13%
Mutant BTK (C481S)
  IC50: 14 nM
SCW induced arthritis; 75 mg/kg dose
  inhibition of paw volume: complete inhibition of paw volume
SCW induced arthritis; 0.2, 1, 5, 25, 75 mg/kg
  serum levels of IL‐6: reduced with the treatment in a dose‐dependent manner
SCW induced arthritis; 0.2, 1, 5, 25, 75 mg/kg, SCW control animals lost weight
  body weight: restored the body weight in a dose dependent manner
BTK [11]
  IC50: 1 nM
[12]
  hematological and biochemical profile, clinical signs and body weight: did not show any change in hematological and biochemical profile, clinical signs and body weight
CYP2C9
  IC50: 5 to 15 µM and 14.7 µM
HBL‐1 cells
  IC50: 12 nM
Plasma protein binding [13]
  fraction unbound: 0.088
IL‐6 secretion
  IC50: 0.4 nM
TMD8 cells [14]
  time for which cell killing is maintained after drug wash‐off: at least 48 hours
[15]
  mClint: 0.67 mL/min/gm liver
[15]; 1 µmol/L, 30 minutes, NADPH
  % metabolized: ≤ 18%

Source: paper PMC7424564 (Pharmacology Research & Perspectives, 2020)
